Measurements as given in PubChem BioAssay AID1919005 (Molecular Pharmacology Branch, DTP, NCI, 2023).

System: 855422-203-R-J1-PDC complex spheroid growth
Experiment: Anticancer human tumor 855422-203-R-J1-PDC patient-derived bladder carcinoma cell line growth inhibition [AhR]
Details: for IC50: curve of first compound; for viability, T/C: stronger effect = lower value
Text: Multicellular complex tumor spheroid response to aryl hydrocarbon receptor antagonists in combination with a variety of drugs and investigational agents in selected tumor cell lines
The current study was undertaken to assess response to aryl hydrocarbon receptor antagonists in combination with standard-of-care drugs and investigational agents in solid tumor complex spheroid models. Complex spheroids include a stromal component modeled by human endothelial cells (HUVEC) and fibroblasts modeled by human mesenchymal stem cells (MSCs). The concentration ranges selected for each drug and investigational agent were based upon clinically achievable concentrations if the clinical Cmax of the agent was known.
Compounds. The drugs and investigational agents: BAY 2416964 (NSC825713), GNF351 (NSC835774), CH-223191 (NSC835775), CPI-455 (NSC825282), aza-TdCyd (NSC777586), decitabine (NSC127716), belinostat (NSC758774), entinostat (NSC756642), pevonedistat (NSC761192), tazemetostat (NSC777109), talazoparib (NSC765396), olaparib (NSC753686), selinexor (NSC780203), nedisertib (M3814, NSC802822), bortezomib (NSC756655), venetoclax (NSC766270), doxorubicin (NSC123127), elimusertib (BAY189344, NSC800525), ceralasertib (AZD6738, NSC777638), TAK-243 (NSC785004), alisertib (NSC759677), etoposide (NSC141540), topotecan (NSC609699), eribulin (NSC707389), gemcitabine (NSC613327), carboplatin (NSC241240), cisplatin (NSC119875), and SN-38 (NSC673596) were obtained from the National Cancer Institute (NCI) Developmental Therapeutics Program Chemical Repository (32). The FDA-approved anticancer drug set is available from the Developmental Therapeutics Program at https://dtp.cancer.gov/organization/dscb/obtaining/available plates.htm. […] The stock solutions were prepared in dimethyl sulfoxide (DMSO, Sigma-Aldrich, St. Louis, MO, cat. D2650), except for the platinum compounds which were prepared in saline (Quality Biological, Gaithersburg, MD, cat. 114-055-101), at 800-fold the tested concentration and stored at -70 degrees C prior to their use. All drugs and investigational agents were tested over a range starting from a high concentration at or near the clinical Cmax and decreasing in half-log increments. If the clinical Cmax for an agent had not been determined, the highest concentration tested was 10 microM (Table 1).
Cell Culture. All cells were maintained in an incubator at 37 degrees C and 5% CO2 with 95% humidity. The PDC lines were cultured according to standard operating procedures established by the NCI PDMR (https://pdmr.cancer.gov). Briefly, all PDCs were thawed and cultured in Matrigel-coated flasks prepared with a working solution of 1X Ham's F-12 nutrient mix, without supplementation (Invitrogen, Waltham, MA, cat. 11765054), 100 U/mL penicillin-streptomycin (Invitrogen, cat. 15140122), and 2.5% Matrigel (Corning Inc., Corning, NY, cat. 354248) for the first three passages. All PDCs were cultured in complete DMEM/F-12 media containing advanced DMEM/F-12 (Invitrogen, cat. 12634028), 4.9% defined fetal bovine serum, heat inactivated (HyClone Laboratories Inc., Logan, UT, cat. SH30070.03HI), 389 ng/mL hydrocortisone (Sigma-Aldrich, cat. H4001), 9.7 ng/mL human EGF recombinant protein (Invitrogen, cat. PHG0313), 23.4 microg/mL adenine (Sigma-Aldrich, cat. A2786), 97.3 U/mL penicillin-streptomycin (Invitrogen, cat. 15140122), 1.9 mM L-glutamine (Invitrogen, cat. 25030081), and 9.7 microM Y-27632 dihydrochloride (Tocris Bioscience, Bristol, United Kingdom, cat. 1254). The PDCs were cultured in complete DMEM/F12 media without 10 microM Y-27632 dihydrochloride for at least two passages prior to the screen. The established cell lines NCI-H1341 and […] were cultured in DMEM/F-12, HEPES (Invitrogen, cat. 11330032), 5% defined fetal bovine serum (HyClone Laboratories Inc., cat. SH30070.03), ITS premix universal culture supplement [insulin (5 microg/mL), transferrin (5 microg/mL), and selenious acid (5 ng/mL)] […]
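Note: spheroids exposed to agents for seven days before readout.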
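Throughout, for viability, T/C: percent of DMSO vehicle control luminescence viability.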

Compound `O=C(C=Cn1cnc(-c2cc(C(F)(F)F)cc(C(F)(F)F)c2)n1)NNc1cnccn1` + Cc1cncc(-c2nc(NCCc3c[nH]c4ccccc34)c3ncn(C(C)C)c3n2)c1 has an IC50 (second compound 0.1 µM) of 0.263 µM, an IC50 (second compound 0.316 µM) of 0.247 µM and an IC50 (second compound 1 µM) of 0.244 µM. For the same compound, the IC50 (second compound 3.16 µM) was 0.201 µM, the IC50 (second compound 10 µM) was under 0.00949 µM and the viability, T/C (second compound 0.1 µM, first compound 0.00949 µM) was 101%. For the same compound, the viability, T/C (second compound 0.1 µM, first compound 0.03 µM) was 102%, the viability, T/C (second compound 0.1 µM, first compound 0.0949 µM) was 162% and the viability, T/C (second compound 0.1 µM, first compound 0.3 µM) was 40.8%. The viability, T/C (second compound 0.1 µM, first compound 0.949 µM) was 30.8%, the viability, T/C (second compound 0.1 µM, first compound 3 µM) was 22.6% and the viability, T/C (second compound 0.316 µM, first compound 0.00949 µM) was 108%. The viability, T/C (second compound 0.316 µM, first compound 0.03 µM) was 116%, the viability, T/C (second compound 0.316 µM, first compound 0.0949 µM) was 128% and the viability, T/C (second compound 0.316 µM, first compound 0.3 µM) was 36.3%. It also gave a viability, T/C (second compound 0.316 µM, first compound 0.949 µM) of 26.3%, a viability, T/C (second compound 0.316 µM, first compound 3 µM) of 23.3% and a viability, T/C (second compound 1 µM, first compound 0.00949 µM) of 95.3%. It also gave a viability, T/C (second compound 1 µM, first compound 0.03 µM) of 114%, a viability, T/C (second compound 1 µM, first compound 0.0949 µM) of 118% and a viability, T/C (second compound 1 µM, first compound 0.3 µM) of 37.1%. The viability, T/C (second compound 1 µM, first compound 0.949 µM) was 30.3%, the viability, T/C (second compound 1 µM, first compound 3 µM) was 25.3% and the viability, T/C (second compound 3.16 µM, first compound 0.00949 µM) was 83.8%. The viability, T/C (second compound 3.16 µM, first compound 0.03 µM) was 95.4%, the viability, T/C (second compound 3.16 µM, first compound 0.0949 µM) was 106% and the viability, T/C (second compound 3.16 µM, first compound 0.3 µM) was 22.2%. The viability, T/C (second compound 3.16 µM, first compound 0.949 µM) was 32.2%, the viability, T/C (second compound 3.16 µM, first compound 3 µM) was 23.9% and the viability, T/C (second compound 10 µM, first compound 0.00949 µM) was 11.4%. The viability, T/C (second compound 10 µM, first compound 0.03 µM) was 7.81%, the viability, T/C (second compound 10 µM, first compound 0.0949 µM) was 6.35% and the viability, T/C (second compound 10 µM, first compound 0.3 µM) was 7.34%. It also gave a viability, T/C (second compound 10 µM, first compound 0.949 µM) of 7.72% and a viability, T/C (second compound 10 µM, first compound 3 µM) of 8.99%.

`Cn1ncnc1C1c2n[nH]c(=O)c3cc(F)cc(c23)NC1c1ccc(F)cc1` (stereo not given) + Cc1cncc(-c2nc(NCCc3c[nH]c4ccccc34)c3ncn(C(C)C)c3n2)c1 was tested, and the IC50 (second compound 0.1 µM) was over 0.1 µM, the IC50 (second compound 0.316 µM) was over 0.1 µM and the IC50 (second compound 1 µM) was over 0.1 µM. The IC50 (second compound 3.16 µM) was over 0.1 µM, the IC50 (second compound 10 µM) was under 0.000316 µM and the viability, T/C (second compound 0.1 µM, first compound 0.000316 µM) was 84.1%. For the same compound, the viability, T/C (second compound 0.1 µM, first compound 0.001 µM) was 85.3%, the viability, T/C (second compound 0.1 µM, first compound 0.00316 µM) was 87.6% and the viability, T/C (second compound 0.1 µM, first compound 0.01 µM) was 95.9%. It also gave a viability, T/C (second compound 0.1 µM, first compound 0.0316 µM) of 87.8%, a viability, T/C (second compound 0.1 µM, first compound 0.1 µM) of 88.2% and a viability, T/C (second compound 0.316 µM, first compound 0.000316 µM) of 91.7%. It also gave a viability, T/C (second compound 0.316 µM, first compound 0.001 µM) of 80.8%, a viability, T/C (second compound 0.316 µM, first compound 0.00316 µM) of 73.1% and a viability, T/C (second compound 0.316 µM, first compound 0.01 µM) of 88.5%. For the same compound, the viability, T/C (second compound 0.316 µM, first compound 0.0316 µM) was 90.3%, the viability, T/C (second compound 0.316 µM, first compound 0.1 µM) was 81.6% and the viability, T/C (second compound 1 µM, first compound 0.000316 µM) was 81.3%. For the same compound, the viability, T/C (second compound 1 µM, first compound 0.001 µM) was 86.2%, the viability, T/C (second compound 1 µM, first compound 0.00316 µM) was 76.4% and the viability, T/C (second compound 1 µM, first compound 0.01 µM) was 78.3%. It also gave a viability, T/C (second compound 1 µM, first compound 0.0316 µM) of 77.2%, a viability, T/C (second compound 1 µM, first compound 0.1 µM) of 84% and a viability, T/C (second compound 3.16 µM, first compound 0.000316 µM) of 67.6%. It also gave a viability, T/C (second compound 3.16 µM, first compound 0.001 µM) of 74.4%, a viability, T/C (second compound 3.16 µM, first compound 0.00316 µM) of 71.4% and a viability, T/C (second compound 3.16 µM, first compound 0.01 µM) of 56.6%. The viability, T/C (second compound 3.16 µM, first compound 0.0316 µM) was 76.9%, the viability, T/C (second compound 3.16 µM, first compound 0.1 µM) was 75.2% and the viability, T/C (second compound 10 µM, first compound 0.000316 µM) was 30.7%. It also gave a viability, T/C (second compound 10 µM, first compound 0.001 µM) of 29.6%, a viability, T/C (second compound 10 µM, first compound 0.00316 µM) of 21.5% and a viability, T/C (second compound 10 µM, first compound 0.01 µM) of 5.12%. It also gave a viability, T/C (second compound 10 µM, first compound 0.0316 µM) of 23.6% and a viability, T/C (second compound 10 µM, first compound 0.1 µM) of 26.1%.
